Read-outs that look alike come from different tables or passages of the source.
Molecular target: T1, human TPO receptor (Homo sapiens, UniProt P40238)
T1 construct: expressed in transfected cells
T1 sequence (P40238 26-635): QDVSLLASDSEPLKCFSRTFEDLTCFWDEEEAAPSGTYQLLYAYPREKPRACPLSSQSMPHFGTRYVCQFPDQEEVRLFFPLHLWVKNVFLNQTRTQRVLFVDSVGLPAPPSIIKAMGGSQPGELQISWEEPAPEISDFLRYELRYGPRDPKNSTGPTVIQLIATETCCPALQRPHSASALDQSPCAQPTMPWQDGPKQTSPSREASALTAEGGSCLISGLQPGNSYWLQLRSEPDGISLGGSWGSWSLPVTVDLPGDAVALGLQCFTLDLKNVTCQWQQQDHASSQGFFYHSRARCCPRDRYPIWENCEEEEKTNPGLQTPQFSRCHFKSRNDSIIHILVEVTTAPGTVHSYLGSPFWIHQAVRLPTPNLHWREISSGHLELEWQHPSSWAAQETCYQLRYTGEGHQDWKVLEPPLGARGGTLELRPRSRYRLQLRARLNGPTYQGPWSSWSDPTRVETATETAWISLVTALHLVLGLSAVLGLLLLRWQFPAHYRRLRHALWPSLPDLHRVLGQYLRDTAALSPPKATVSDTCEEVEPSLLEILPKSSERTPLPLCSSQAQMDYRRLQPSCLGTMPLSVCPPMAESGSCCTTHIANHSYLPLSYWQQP
Test: Proliferation of TPO-dependent cell line UT7/EPO-mpl, MTT method (Assay Examples 1, 3, 4)
Format: cell-based
Settings: UT7/EPO-mpl cells; for EC50: concentration giving 50% of the maximum cell growth observed with the same compound; for Efficacy (%) (maximal growth rate) / Emax: value in the presence of 10 ng/ml TPO taken as 100% standard, method of Assay Example 1; for Emax: read-out: Efficacy (%) (maximal growth rate)
Experimental: The reactivity of Synthetic Example 56, the compound of the present invention, with thrombopoietin (TPO) receptor was assayed using a human leukemic cell line, UT7/EPO-mpl.
UT7/EPO-mpl is a stable transformed cell line obtained by introducing into human leukemic cell line UT7/EPO a vector that induces expression of human TPO receptor (c-mp1) under control of a cytomegaloviral promoter by the method of Takatoku et al. (J. Biol. Chem., 272:7259-7263 (1997)). […] These two cell lines were subcultured in Iscove's modified Dulbecco's medium (IMDM; GIBCO) containing 10% fetal bovine serum (FBS; TRACE SCIENTIFIC) using a CO2 incubator (5% CO2, 37° C.).
The subcultured cells described above were washed twice with phosphate buffered saline (PBS) and suspended in IMDM containing 10% FBS at a cell density of 6×10^4 cells/ml. The cell suspension was transferred to a 96-well tissue culture plate (CORNING) in 100-μl aliquots. Then either TPO (PeproTech EC) or Synthetic Example 56 dissolved in dimethylsulfoxide (DMSO) was diluted 83-fold with IMDM containing 10% FBS and added to the aforementioned cell suspension in 20-μl aliquots. The suspension was incubated in a CO2 incubator (5% CO2, 37° C.) for 4 days. Cell proliferation was assayed according to the method of Mosmann et al. (J. Immunol. Methods, 65:55-63 (1983)). A 10-μl aliquot of 5 mg/ml MTT reagent (SIGMA) was added to each well of the tissue culture plate and the plate was incubated at 37° C. for 4 h. The formazan pigment generated was dissolved by adding 150 μl per well of 0.1 M HCl/isopropanol solution and the absorbance of the resulting pigment solution was measured at 550 nm with a 96-well microplate reader (BIO-RAD, M450).
The following Synthetic Examples were tested according to the method of Assay Example 1 to determine the maximal growth rate (efficacy), expressed by taking the value with human leukemic cell line UT7/EPO-mpl observed in the presence of 10 ng/ml TPO as 100% standard, and the concentration of each compound that yields a growth rate corresponding to 50% of the maximum cell growth observed with the same compound (EC50).
Synthetic Example 56, the compound of the present invention, and four compounds (Reference Synthetic Examples 1 to 4) described in a publication of international patent application (Publication No. WO01/34585, applied by SmithKline Beecham Corp.) were tested according to the method of Assay Example 1.

Row | Structure (SMILES) | EC50 | Efficacy (%) (maximal growth rate) | Emax | EC50 (read-out: EC50 (ng/ml) (converted))
1 | CC1=NN(c2cccc(C(F)(F)F)c2)C(=O)C1=C(C)NNC(=O)c1ccc(C(=O)O)cc1 [compound 9] | 0.0051 µg/mL | 90% | – | –
2 | Cc1ccc(-n2nc(C)c(C=NN3C(=O)C(=Cc4cccc(C(=O)O)c4)SC3=S)c2O)cc1C [Reference Synthetic Example 2, 5-(3-carboxybenzylidene)-3-[(1-{3,4-dimethylphenyl}-5-hydroxy-3-methyl-1H-pyrazol-4-ylmethylene)amino]-2-thioxothiazolidin-4-one, reference compound] | – | – | 12% | –
3 | CC1=NN(c2ccc(C(F)(F)F)cc2)C(=O)C1=C(C)NNC(=O)c1cccc([N+](=O)[O-])c1 [compound 36] | 0.059 µg/mL | 97% | – | –
4 | CC1=NN(c2ccc(C(C)(C)C)cc2)C(=O)C1=C(C)NNC(=O)c1ccc(O)cc1O [compound 26] | 0.0029 µg/mL | 78% | – | –
5 | CC1=NN(c2ccc(I)cc2)C(=O)C1=C(C)NNC(=O)c1ccc(O)cc1O [compound 1] | 0.0074 µg/mL | 74% | – | –
6 | CC1=NN(c2ccccc2)C(=O)C1=C(C)NNC(=O)c1ccccc1[N+](=O)[O-] [compound 21] | 0.29 µg/mL | 39% | – | –
7 | CC1=NN(c2ccc(I)cc2)C(=O)C1=C(C)NNC(=O)c1ccc(O)c(O)c1 [compound 41] | 0.032 µg/mL | 115% | – | –
8 | CC1=NN(c2ccc(C(F)(F)F)cc2)C(=O)C1=C(C)NNC(=O)c1ccc(O)cc1O [compound 33] | 0.0011 µg/mL | 96% | – | –
9 | CC1=NN(c2ccc(I)cc2)C(=O)C1=C(C)NNC(=O)c1ccccc1O [compound 38] | 0.036 µg/mL | 93% | – | –
10 | CC1=NN(c2ccc(C(F)(F)F)cc2)C(=O)C1=C(C)NNC(=O)c1ccccc1[N+](=O)[O-] [compound 35] | 0.034 µg/mL | 99% | – | –
11 | CC1=NN(c2ccc(C(F)(F)F)cc2)C(=O)C1=C(C)NNC(=O)c1ccc(O)cc1 [compound 31] | 0.0052 µg/mL | 63% | – | –
12 | CC1=NN(c2ccc(C(F)(F)F)cc2)C(=O)C1=C(C)NNC(=O)c1ccc([N+](=O)[O-])cc1 [compound 37] | 0.14 µg/mL | 63% | – | –
13 | CC1=NN(c2ccc(C(F)(F)F)cc2)C(=O)C1=C(C)NNC(=O)c1ccc(C(=O)O)cc1 [compound 11] | 0.002 µg/mL | 83% | – | –
14 | CC1=NN(c2ccc(C(F)(F)F)cc2)C(=O)C1=C(C)NNC(=O)c1ccccc1O [compound 30] | 0.019 µg/mL | 106% | – | –
15 | CC1=NN(c2ccccc2)C(=O)C1=C(C)NNC(=O)c1cccc([N+](=O)[O-])c1 [compound 14] | 0.072 µg/mL | 91% | – | –
16 | CC1=NN(c2ccccc2)C(=O)C1=C(C)NNC(=O)c1ccc(O)cc1O [compound 19] | 0.014 µg/mL | 100% | – | –
17 | CC1=NN(c2ccc(C(C)(C)C)cc2)C(=O)C1=C(C)NNC(=O)c1ccc(O)cc1 [compound 24] | 0.0072 µg/mL | 89% | – | –
18 | CC1=NN(c2cccc(C(F)(F)F)c2)C(=O)C1=C(C)NNC(=O)c1ccc(O)cc1O [compound 48] | 0.008 µg/mL | 62% | – | –
19 | CC1=NN(c2ccc(C)c(C)c2)C(=O)C1=C(C)NNC(=O)c1cccc(C(=O)O)c1 [compound 13] | 0.28 µg/mL | 99% | – | –
20 | CC1=NN(c2ccc(I)cc2)C(=O)C1=C(C)NNC(=O)c1ccccc1[N+](=O)[O-] [compound 42] | 0.25 µg/mL | 71% | – | –
21 | COC(=O)c1ccc(C(=O)NNC(C)=C2C(=O)N(c3ccc(C(F)(F)F)cc3)N=C2C)cc1 [compound 10] | – | – | 78% | 43.4 nM
22 | CC1=NN(c2cccc(C(F)(F)F)c2)C(=O)C1=C(C)NNC(=O)c1ccc(O)cc1 [compound 46] | 0.015 µg/mL | 82% | – | –
23 | CC1=NN(c2ccc(I)cc2)C(=O)C1=C(C)NNC(=O)c1ccc(O)cc1 [compound 39] | 0.028 µg/mL | 97% | – | –
24 | CC1=NN(c2cccc(C(F)(F)F)c2)C(=O)C1=C(C)NNC(=O)c1ccccc1O [compound 45] | 0.03 µg/mL | 74% | – | –
25 | CC1=NN(c2ccccc2)C(=O)C1=C(C)NNC(=O)c1ccccc1O [compound 16] | 0.061 µg/mL | 58% | – | –

Next, values leading:

Row | EC50 | Efficacy (%) (maximal growth rate) | Emax | EC50 (read-out: EC50 (ng/ml) (converted)) | Structure (SMILES)
26 | 0.037 µg/mL | 89% | – | – | CC1=NN(c2cccc(C(F)(F)F)c2)C(=O)C1=C(C)NNC(=O)c1ccccc1[N+](=O)[O-] [compound 50]
27 | 0.046 µg/mL | 79% | – | – | CC1=NN(c2ccc(C)c(C)c2)C(=O)C1=C(C)NNC(=O)c1ccc(C(C)(C)C)cc1 [compound 76]
28 | 0.033 µg/mL | 73% | – | – | CC1=NN(c2cccc(C(F)(F)F)c2)C(=O)C1=C(C)NNC(=O)c1cccc([N+](=O)[O-])c1 [compound 51]
29 | 0.0091 µg/mL | 62% | – | – | CC1=NN(c2cccc(C(F)(F)F)c2)C(=O)C1=C(C)NNC(=O)c1ccc(O)c(O)c1 [compound 49]
30 | 0.026 µg/mL | 84% | – | – | CC1=NN(c2ccc(C)c(C)c2)C(=O)C1=C(C)NNC(=O)c1cccc(O)c1 [compound 82]
31 | 0.0075 µg/mL | 61% | – | – | CC1=NN(c2ccc(C)c(C)c2)C(=O)C1=C(C)NNC(=O)c1ccc(O)cc1 [compound 54]
32 | 0.6 µg/mL | 71% | – | – | CC1=NN(c2ccccn2)C(=O)C1=C(C)NNC(=O)c1ccc(O)cc1O [compound 87]
33 | 0.032 µg/mL | 110% | – | – | CC1=NN(c2ccc(C)c(C)c2)C(=O)C1=C(C)NNC(=O)c1ccccc1[N+](=O)[O-] [compound 58]
34 | 0.1 µg/mL | 62% | – | – | CC1=NN(c2ccc(C)c(C)c2)C(=O)C1=C(C)NNC(=O)c1ccc([N+](=O)[O-])cc1 [compound 60]
35 | 0.0064 µg/mL | 57% | – | – | CC1=NN(c2ccc(Cl)c(Cl)c2)C(=O)C1=C(C)NNC(=O)c1ccc(O)cc1 [compound 62]
36 | 0.015 µg/mL | 69% | – | – | CC1=NN(c2ccc(Cl)c(Cl)c2)C(=O)C1=C(C)NNC(=O)c1cccc(N)c1 [compound 78]
37 | 0.0089 µg/mL | 70% | – | – | CC1=NN(c2ccc(Cl)c(Cl)c2)C(=O)C1=C(C)NNC(=O)c1ccc(O)c(O)c1 [compound 65]
38 | 0.21 µg/mL | 26% | – | – | CC1=NN(c2ccc(Cl)c(Cl)c2)C(=O)C1=C(C)NNC(=O)c1ccc([N+](=O)[O-])cc1 [compound 68]
39 | 0.13 µg/mL | 109% | – | – | CC1=NN(c2cccc([N+](=O)[O-])c2)C(=O)C1=C(C)NNC(=O)c1cccc([N+](=O)[O-])c1 [compound 84]
40 | 0.025 µg/mL | 77% | – | – | CC1=NN(c2ccc(C)c(C)c2)C(=O)C1=C(C)NNC(=O)c1cccc(N)c1 [compound 74]

Source: US8053453B2, “Pyrazolone compounds and thrombopoietin receptor activator” (Nissan Chemical Industries, Ltd., priority 2002, dated 2011)
